Assay: recombinant barcode read abundance after kanamycin selection (control-corrected) (log10(CPM+1)); higher = more efficient recombination; sequences stand for … in AGTGCAGAGAAAATCGGCCAGTTTTCTCTGCCTGCAGTCCGCATGCCGT…AGATTTATGCAGCGGACTGCCTTTCTCCCAAAGTGATAAACCGGACAGTATCATGGACCGGTTTTCCCGGTAATCCGTATTTGCAAGGTTGGTTTCACT; site = the 11-nt target
In short: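 Recombination efficiency draws on barcodes counted at recombinant junctions in a pooled E. coli screen of targets paired with IS621 bridge RNA target-binding loops. The counts were converted to counts per million, averaged and corrected against the chloramphenicol/ampicillin LB agar control, then reported as log10(CPM+1). Selection plates held chloramphenicol/ampicillin/kanamycin with 0.1 mM IPTG, with two replicates per condition.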
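Note: IS621 recombinase and bridge RNA in Escherichia coli cells.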

Sequence: CAATCCTCTTGGGTTCTAACCTGTTGCTA (site CAATCCTCTTA)
- recombinant barcode read abundance (log10): 0.443

Sequence: CAATCCTCTTGGGTTCTAACCTGTTGCTA (site TCTGTAACTAG)
- recombinant barcode read abundance (log10): 0.0981

Sequence: CAATGGCCTTGGGTTCTAACCTGTTGCCT (site CAAAGGCCTAG)
- recombinant barcode read abundance (log10): 0.126

Sequence: CAATGGCCTTGGGTTCTAACCTGTTGCCT (site CAACGGCCTAG)
- recombinant barcode read abundance (log10): 0.253

Sequence: CAATGGCCTTGGGTTCTAACCTGTTGCCT (site CAAGGGCCTAG)
- recombinant barcode read abundance (log10): 0.27

Sequence: CAATGGCCTTGGGTTCTAACCTGTTGCCT (site CAATGGCCTAG)
- recombinant barcode read abundance (log10): 0.571

Sequence: CACAAAGCTTGGGTTCTAACCTGTTGCCT (site CACAAAGCTAG)
- recombinant barcode read abundance (log10): 0.84

Sequence: CACAAAGCTTGGGTTCTAACCTGTTGCCT (site CACACAGCTAG)
- recombinant barcode read abundance (log10): 0.143

Sequence: CACAACACTTGGGTTCTAACCTGTTGCCT (site CACAACACTAG)
- recombinant barcode read abundance (log10): 1.84

Sequence: CACAACACTTGGGTTCTAACCTGTTGCCT (site CACACCACTAG)
- recombinant barcode read abundance (log10): 0.287

Sequence: CACAACACTTGGGTTCTAACCTGTTGCCT (site CACAGCACTAG)
- recombinant barcode read abundance (log10): 0.0135

Sequence: CACAACACTTGGGTTCTAACCTGTTGCCT (site CACATCACTAG)
- recombinant barcode read abundance (log10): 0.0296

Sequence: CACAAGTCTTGGGTTCTAACCTGTTGCGT (site CACAAGTCTAC)
- recombinant barcode read abundance (log10): 1.38

Sequence: CACAAGTCTTGGGTTCTAACCTGTTGCGT (site CACCAGTCTCC)
- recombinant barcode read abundance (log10): 0.0392

Sequence: CACACCACTTGGGTTCTAACCTGTTGCCT (site CACAACACTAG)
- recombinant barcode read abundance (log10): 0.243

Sequence: CACACCACTTGGGTTCTAACCTGTTGCCT (site CACACCACTAG)
- recombinant barcode read abundance (log10): 0.698

Sequence: CACACCACTTGGGTTCTAACCTGTTGCCT (site CACAGCACTAG)
- recombinant barcode read abundance (log10): 0.211

Sequence: CACACCACTTGGGTTCTAACCTGTTGCCT (site CACATCACTAG)
- recombinant barcode read abundance (log10): 0.108

Sequence: CACACCGCTTGGGTTCTAACCTGTTGCCT (site CACACCGCTAG)
- recombinant barcode read abundance (log10): 1.62

Sequence: CACACCGCTTGGGTTCTAACCTGTTGCCT (site CACACGGCTAG)
- recombinant barcode read abundance (log10): 0.0403

Sequence: CACACTCCTTGGGTTCTAACCTGTTGCAG (site CACACTCCTCT)
- recombinant barcode read abundance (log10): 0.498

Sequence: CACACTCCTTGGGTTCTAACCTGTTGCAG (site CAGACGCCTCT)
- recombinant barcode read abundance (log10): 0.193

Sequence: CACAGTGCTTGGGTTCTAACCTGTTGCCT (site CACAGTGCTAG)
- recombinant barcode read abundance (log10): 0.235

Sequence: CACAGTGCTTGGGTTCTAACCTGTTGCCT (site CAGAGTACTAG)
- recombinant barcode read abundance (log10): 0.0936

Sequence: CACATACCTTGGGTTCTAACCTGTTGCCG (site CACATACCTAC)
- recombinant barcode read abundance (log10): 0.0694

Sequence: CACATACCTTGGGTTCTAACCTGTTGCCG (site CACATACCTCG)
- recombinant barcode read abundance (log10): 0.443

Sequence: CACATACCTTGGGTTCTAACCTGTTGCGT (site CACATACCTAC)
- recombinant barcode read abundance (log10): 1.92

Sequence: CACATACCTTGGGTTCTAACCTGTTGCGT (site CACATACCTCG)
- recombinant barcode read abundance (log10): 0.0777

Sequence: CACATCGCTTGGGTTCTAACCTGTTGCCT (site CACATCGCTAG)
- recombinant barcode read abundance (log10): 1.08

Sequence: CACATCGCTTGGGTTCTAACCTGTTGCCT (site TACTTCGCTAG)
- recombinant barcode read abundance (log10): 0.155

Sequence: CACATGGCTTGGGTTCTAACCTGTTGCCG (site CACAGGGCTCC)
- recombinant barcode read abundance (log10): 0.159

Sequence: CACATGGCTTGGGTTCTAACCTGTTGCCG (site CACATGGCTCG)
- recombinant barcode read abundance (log10): 0.259

Sequence: CACCAACCTTGGGTTCTAACCTGTTGCCT (site CACCAAACTAG)
- recombinant barcode read abundance (log10): 0.112

Sequence: CACCAACCTTGGGTTCTAACCTGTTGCCT (site CACCAACCTAG)
- recombinant barcode read abundance (log10): 0.313

Sequence: CACCAGTCTTGGGTTCTAACCTGTTGCGG (site CACAAGTCTAC)
- recombinant barcode read abundance (log10): 0.0664

Sequence: CACCAGTCTTGGGTTCTAACCTGTTGCGG (site CACCAGTCTCC)
- recombinant barcode read abundance (log10): 2.14

Sequence: CACCCTACTTGGGTTCTAACCTGTTGCCT (site AACCCTACTAG)
- recombinant barcode read abundance (log10): 0.04

Sequence: CACCCTACTTGGGTTCTAACCTGTTGCCT (site CACCCTACTAG)
- recombinant barcode read abundance (log10): 1.26

Sequence: CACCCTACTTGGGTTCTAACCTGTTGCCT (site GACCCTACTAG)
- recombinant barcode read abundance (log10): 0.0997

Sequence: CACCCTACTTGGGTTCTAACCTGTTGCCT (site TACCCTACTAG)
- recombinant barcode read abundance (log10): 0.0523

Sequence: CACCGTCCTTGGGTTCTAACCTGTTGCGT (site CACCGTCCTAC)
- recombinant barcode read abundance (log10): 3.03

Sequence: CACCGTCCTTGGGTTCTAACCTGTTGCGT (site CACCGTCCTAT)
- recombinant barcode read abundance (log10): 1.57

Sequence: CACCTGACTTGGGTTCTAACCTGTTGCCG (site CACCTGACTCG)
- recombinant barcode read abundance (log10): 0.599

Sequence: CACCTGACTTGGGTTCTAACCTGTTGCCG (site CACCTGTCTCG)
- recombinant barcode read abundance (log10): 0.0187

Sequence: CACCTGTCTTGGGTTCTAACCTGTTGCGG (site AGATATACTAA)
- recombinant barcode read abundance (log10): 0.0793

Sequence: CACCTGTCTTGGGTTCTAACCTGTTGCGG (site CACCTGTCTCC)
- recombinant barcode read abundance (log10): 1.8

Sequence: CACGATCCTTGGGTTCTAACCTGTTGCTT (site AGTCGGACTGT)
- recombinant barcode read abundance (log10): 0.11

Sequence: CACGATCCTTGGGTTCTAACCTGTTGCTT (site CACGATCCTAA)
- recombinant barcode read abundance (log10): 1.52

Sequence: CACGCAACTTGGGTTCTAACCTGTTGCTT (site CACGCAACTAA)
- recombinant barcode read abundance (log10): 0.476

Sequence: CACGCAACTTGGGTTCTAACCTGTTGCTT (site GAGGCAACTAA)
- recombinant barcode read abundance (log10): 0.888

Sequence: CACTATCCTTGGGTTCTAACCTGTTGCCT (site CAATATCCTAG)
- recombinant barcode read abundance (log10): 0.0585

Sequence: CACTATCCTTGGGTTCTAACCTGTTGCCT (site CACTATCCTAG)
- recombinant barcode read abundance (log10): 2.16

Sequence: CACTATCCTTGGGTTCTAACCTGTTGCCT (site CAGTATCCTAG)
- recombinant barcode read abundance (log10): 0.157

Sequence: CACTATCCTTGGGTTCTAACCTGTTGCCT (site CATTATCCTAG)
- recombinant barcode read abundance (log10): 0.0363

Sequence: CACTCTGCTTGGGTTCTAACCTGTTGCCT (site CAATCTGCTAG)
- recombinant barcode read abundance (log10): 0.617

Sequence: CACTCTGCTTGGGTTCTAACCTGTTGCCT (site CACTCTGCTAG)
- recombinant barcode read abundance (log10): 0.569

Sequence: CACTCTGCTTGGGTTCTAACCTGTTGCCT (site CAGTCTGCTAG)
- recombinant barcode read abundance (log10): 0.0477

Sequence: CACTCTGCTTGGGTTCTAACCTGTTGCCT (site CATTCTGCTAG)
- recombinant barcode read abundance (log10): 0.332

Sequence: CACTGGGCTTGGGTTCTAACCTGTTGCAG (site CACTGGGCTCT)
- recombinant barcode read abundance (log10): 0.791

Sequence: CACTGGGCTTGGGTTCTAACCTGTTGCAG (site CACTTGGCTCT)
- recombinant barcode read abundance (log10): 0.115

Sequence: CACTGTTCTTGGGTTCTAACCTGTTGCCT (site CACTGATCTAG)
- recombinant barcode read abundance (log10): 0.325

Sequence: CACTGTTCTTGGGTTCTAACCTGTTGCCT (site CACTGCTCTAG)
- recombinant barcode read abundance (log10): 0.0508

Sequence: CACTGTTCTTGGGTTCTAACCTGTTGCCT (site CACTGGTCTAG)
- recombinant barcode read abundance (log10): 0.069

Sequence: CACTGTTCTTGGGTTCTAACCTGTTGCCT (site CACTGTTCTAG)
- recombinant barcode read abundance (log10): 0.737

Sequence: CACTTCCCTTGGGTTCTAACCTGTTGCAT (site CACTTCCCTAA)
- recombinant barcode read abundance (log10): 0.0158

Sequence: CACTTCCCTTGGGTTCTAACCTGTTGCAT (site CACTTCCCTAC)
- recombinant barcode read abundance (log10): 0.106

Sequence: CACTTCCCTTGGGTTCTAACCTGTTGCAT (site CACTTCCCTAG)
- recombinant barcode read abundance (log10): 0.316

Sequence: CACTTCCCTTGGGTTCTAACCTGTTGCAT (site CACTTCCCTAT)
- recombinant barcode read abundance (log10): 1.93

Sequence: CACTTCCCTTGGGTTCTAACCTGTTGCGA (site AGTGAAGCTGT)
- recombinant barcode read abundance (log10): 0.222

Sequence: CACTTCCCTTGGGTTCTAACCTGTTGCGA (site CACTTCCCTTC)
- recombinant barcode read abundance (log10): 0.492

Sequence: CACTTCCCTTGGGTTCTAACCTGTTGCGT (site CACTTCCCTAA)
- recombinant barcode read abundance (log10): 0.0684

Sequence: CACTTCCCTTGGGTTCTAACCTGTTGCGT (site CACTTCCCTAC)
- recombinant barcode read abundance (log10): 2.4

Sequence: CACTTCCCTTGGGTTCTAACCTGTTGCGT (site CACTTCCCTAG)
- recombinant barcode read abundance (log10): 0.402

Sequence: CACTTCCCTTGGGTTCTAACCTGTTGCGT (site CACTTCCCTAT)
- recombinant barcode read abundance (log10): 1.5

Sequence: CACTTGGCTTGGGTTCTAACCTGTTGCCT (site CACTTGACTAG)
- recombinant barcode read abundance (log10): 0.0371

Sequence: CACTTGGCTTGGGTTCTAACCTGTTGCCT (site CACTTGCCTAG)
- recombinant barcode read abundance (log10): 0.366

Sequence: CACTTGGCTTGGGTTCTAACCTGTTGCCT (site CACTTGGCTAG)
- recombinant barcode read abundance (log10): 0.134

Sequence: CACTTGGCTTGGGTTCTAACCTGTTGCCT (site CACTTGTCTAG)
- recombinant barcode read abundance (log10): 0.0944

Sequence: CAGAACACTTGGGTTCTAACCTGTTGCCT (site AAGAACACTAG)
- recombinant barcode read abundance (log10): 0.0991

Sequence: CAGAACACTTGGGTTCTAACCTGTTGCCT (site CAGAACACTAG)
- recombinant barcode read abundance (log10): 1.94

Sequence: CAGAACACTTGGGTTCTAACCTGTTGCCT (site GAGAACACTAG)
- recombinant barcode read abundance (log10): 0.198

Sequence: CAGAACACTTGGGTTCTAACCTGTTGCCT (site TAGAACACTAG)
- recombinant barcode read abundance (log10): 0.171

Sequence: CAGCCCTCTTGGGTTCTAACCTGTTGCCT (site CAGCCCTCTAG)
- recombinant barcode read abundance (log10): 2.59

Sequence: CAGCCCTCTTGGGTTCTAACCTGTTGCCT (site CCGCCCTCTAG)
- recombinant barcode read abundance (log10): 0.883

Sequence: CAGCCCTCTTGGGTTCTAACCTGTTGCCT (site CGGCCCTCTAG)
- recombinant barcode read abundance (log10): 0.0354

Sequence: CAGCCCTCTTGGGTTCTAACCTGTTGCCT (site CTGCCCTCTAG)
- recombinant barcode read abundance (log10): 0.315

Reference: the supplement of paper PMC11208160
